# Reference: ChEMBL document CHEMBL3885861, “Open TG-GATES”
# Organism: Rattus norvegicus
# Assay: Open TG-GATES - Regimen: Daily Repeat
# Format: toxicity, organism-based, Sprague-Dawley
# Design: regimen Daily Repeat, gender Male, age 6 weeks
# Settings: in vivo, po, route gavage; for APTT / Bas / Eos / Fbg / Hb / Lym / MCH / MCHC / MCV / Mono / Plat / RBC / Ret / WBC / Ht: tissue Blood; for KIDNEY_L / KIDNEY_R / KIDNEY_TOTAL: tissue Kidney; for ALP / ALT / AST / BUN / CRE / Ca / Cl / DBIL / GLC / IP / K / LDH / Na / PL / RALB / TBIL / TC / TG / TP / gamma-GTP: tissue Plasma
# [1] = 0 mg/kg, 72 h, dose level Control, time 3 day
# [2] = 0 mg/kg, […], dose level Control, time 7 day
# [3] = 0 mg/kg, […], dose level Control, time 14 day
# [4] = 0 mg/kg, […], dose level Control, time 28 day
# [5] = 25 mg/kg, 72 h, dose level Low, time 3 day
# [6] = 25 mg/kg, […], dose level Low, time 7 day
# [7] = 25 mg/kg, […], dose level Low, time 14 day
# [8] = 25 mg/kg, […], dose level Low, time 28 day
smiles,measurement,setting,value
O=C1CN(/N=C/c2ccc(-c3ccc([N+](=O)[O-])cc3)o2)C(O)=N1 [DANTROLENE],TERMINAL_BW,[1],235.4 g
same,APTT,[1],16.8 s
same,Bas,[1],0%
same,Eos,[1],1%
same,Fbg,[1],224.8 mg/dL
same,Hb,[1],13.3 g/dL
same,Lym,[1],77%
same,MCH,[1],21.6 pg
same,MCHC,[1],33.6%
same,MCV,[1],64.2 fL
same,Mono,[1],6.6%
same,Plat,[1],128.8 x10_4/uL
same,RBC,[1],618.2 x10_4/ul
same,Ret,[1],6.6%
same,WBC,[1],113.2 x10_2/uL
same,KIDNEY_L,[1],1.1 g
same,KIDNEY_R,[1],1.1 g
same,KIDNEY_TOTAL,[1],2.2 g
same,ALP,[1],842.8 IU/L
same,ALT,[1],34 IU/L
same,AST,[1],62.8 IU/L
same,BUN,[1],19.2 mg/dL
same,CRE,[1],0.6 mg/dL
same,Ca,[1],10.9 mg/dL
same,Cl,[1],104 meq/L
same,DBIL,[1],0.004 mg/dL
same,GLC,[1],200.6 mg/dL
same,IP,[1],7.5 mg/dL
same,K,[1],4.7 meq/L
same,LDH,[1],85 IU/L
same,Na,[1],140.2 meq/L
same,PL,[1],158.6 mg/dL
same,RALB,[1],3.8 g/dL
same,TBIL,[1],0.3 mg/dL
same,TC,[1],78.4 mg/dL
same,TG,[1],114.8 mg/dL
same,TP,[1],5.8 g/dL
same,gamma-GTP,[1],1 IU/L
same,TERMINAL_BW,[2],269.1 g
same,TERMINAL_BW,[3],300.9 g
same,TERMINAL_BW,[4],379.1 g
same,APTT,[2],16.9 s
same,Bas,[2],0%
same,Eos,[2],1%
same,Fbg,[2],213 mg/dL
same,Hb,[2],14 g/dL
same,Lym,[2],78.2%
same,MCH,[2],21 pg
same,MCHC,[2],33.6%
same,MCV,[2],62.7 fL
same,Mono,[2],7.4%
same,Plat,[2],126.8 x10_4/uL
same,RBC,[2],666.4 x10_4/ul
same,Ret,[2],5.1%
same,WBC,[2],106.4 x10_2/uL
same,APTT,[3],17.6 s
same,Bas,[3],0%
same,Eos,[3],0.4%
same,Fbg,[3],201.8 mg/dL
same,Hb,[3],14.8 g/dL
same,Lym,[3],82.6%
same,MCH,[3],20.3 pg
same,MCHC,[3],33.3%
same,MCV,[3],61.1 fL
same,Mono,[3],3.8%
same,Plat,[3],112.9 x10_4/uL
same,RBC,[3],728.6 x10_4/ul
same,Ret,[3],3.7%
same,WBC,[3],110.6 x10_2/uL
same,APTT,[4],18.6 s
same,Bas,[4],0%
same,Eos,[4],1.4%
same,Fbg,[4],217.6 mg/dL
same,Hb,[4],15.6 g/dL
same,Ht,[4],46.2%
same,Lym,[4],84%
same,MCH,[4],19.5 pg
same,MCHC,[4],33.9%
same,MCV,[4],57.5 fL
same,Mono,[4],4.6%
same,Plat,[4],117 x10_4/uL
same,RBC,[4],803.2 x10_4/ul
same,Ret,[4],2.8%
same,WBC,[4],103.3 x10_2/uL
same,KIDNEY_L,[2],1.2 g
same,KIDNEY_R,[2],1.2 g
same,KIDNEY_TOTAL,[2],2.4 g
same,KIDNEY_L,[3],1.2 g
same,KIDNEY_R,[3],1.3 g
same,KIDNEY_TOTAL,[3],2.5 g
same,KIDNEY_L,[4],1.4 g
same,KIDNEY_R,[4],1.3 g
same,KIDNEY_TOTAL,[4],2.7 g
same,ALP,[2],931.4 IU/L
same,ALT,[2],33.4 IU/L
same,AST,[2],64.2 IU/L
same,BUN,[2],18.2 mg/dL
same,CRE,[2],0.5 mg/dL
same,Ca,[2],10.7 mg/dL
same,Cl,[2],106.8 meq/L
same,DBIL,[2],0.002 mg/dL
same,GLC,[2],204 mg/dL
same,IP,[2],7.2 mg/dL
same,K,[2],5.1 meq/L
same,LDH,[2],76.6 IU/L
same,Na,[2],138.6 meq/L
same,PL,[2],164.2 mg/dL
same,RALB,[2],3.8 g/dL
same,TBIL,[2],0.3 mg/dL
same,TC,[2],79.6 mg/dL
same,TG,[2],138.8 mg/dL
same,TP,[2],5.8 g/dL
same,gamma-GTP,[2],1.4 IU/L
same,ALP,[3],833.2 IU/L
same,ALT,[3],31.4 IU/L
same,AST,[3],61.6 IU/L
same,BUN,[3],17.8 mg/dL
same,CRE,[3],0.6 mg/dL
same,Ca,[3],10.5 mg/dL
same,Cl,[3],105.4 meq/L
same,DBIL,[3],0.012 mg/dL
same,GLC,[3],203.6 mg/dL
same,IP,[3],7.5 mg/dL
same,K,[3],4.5 meq/L
same,LDH,[3],82.6 IU/L
same,Na,[3],141.8 meq/L
same,PL,[3],139.2 mg/dL
same,RALB,[3],3.9 g/dL
same,TBIL,[3],0.3 mg/dL
same,TC,[3],62 mg/dL
same,TG,[3],85.8 mg/dL
same,TP,[3],5.9 g/dL
same,gamma-GTP,[3],0.8 IU/L
same,ALP,[4],628.6 IU/L
same,ALT,[4],30.6 IU/L
same,AST,[4],50.8 IU/L
same,BUN,[4],18 mg/dL
same,CRE,[4],0.6 mg/dL
same,Ca,[4],10.3 mg/dL
same,Cl,[4],106.8 meq/L
same,DBIL,[4],0.016 mg/dL
same,GLC,[4],187.8 mg/dL
same,IP,[4],6.5 mg/dL
same,K,[4],4.4 meq/L
same,LDH,[4],83.2 IU/L
same,Na,[4],140 meq/L
same,PL,[4],143.4 mg/dL
same,RALB,[4],3.8 g/dL
same,TBIL,[4],0.3 mg/dL
same,TC,[4],69.6 mg/dL
same,TG,[4],127.2 mg/dL
same,TP,[4],6.1 g/dL
same,gamma-GTP,[4],1.2 IU/L
same,TERMINAL_BW,[5],228.7 g
same,APTT,[5],19.4 s
same,Bas,[5],0%
same,Eos,[5],1%
same,Fbg,[5],221.4 mg/dL
same,Hb,[5],13.7 g/dL
same,Lym,[5],78%
same,MCH,[5],21.8 pg
same,MCHC,[5],33.8%
same,MCV,[5],64.6 fL
same,Mono,[5],8.4%
same,Plat,[5],138.1 x10_4/uL
same,RBC,[5],624.8 x10_4/ul
same,Ret,[5],5.3%
same,WBC,[5],107 x10_2/uL
same,KIDNEY_L,[5],1.1 g
same,KIDNEY_R,[5],1.1 g
same,KIDNEY_TOTAL,[5],2.2 g
same,ALP,[5],873.2 IU/L
same,ALT,[5],37.8 IU/L
same,AST,[5],75 IU/L
same,BUN,[5],19.6 mg/dL
same,CRE,[5],0.6 mg/dL
same,Ca,[5],10.8 mg/dL
same,Cl,[5],104.4 meq/L
same,DBIL,[5],0.004 mg/dL
same,GLC,[5],194.8 mg/dL
same,IP,[5],6.2 mg/dL
same,K,[5],4.5 meq/L
same,LDH,[5],102.4 IU/L
same,Na,[5],139.8 meq/L
same,PL,[5],151.8 mg/dL
same,RALB,[5],4 g/dL
same,TBIL,[5],0.3 mg/dL
same,TC,[5],73.8 mg/dL
same,TG,[5],122.4 mg/dL
same,TP,[5],5.8 g/dL
same,gamma-GTP,[5],0.6 IU/L
same,TERMINAL_BW,[6],252.5 g
same,TERMINAL_BW,[7],308.4 g
same,TERMINAL_BW,[8],376.7 g
same,APTT,[6],16.1 s
same,Bas,[6],0%
same,Eos,[6],1.2%
same,Fbg,[6],215 mg/dL
same,Hb,[6],14.4 g/dL
same,Lym,[6],79%
same,MCH,[6],20.9 pg
same,MCHC,[6],33.9%
same,MCV,[6],61.5 fL
same,Mono,[6],8%
same,Plat,[6],108.3 x10_4/uL
same,RBC,[6],689.4 x10_4/ul
same,Ret,[6],4.6%
same,WBC,[6],121.3 x10_2/uL
same,APTT,[7],17.2 s
same,Bas,[7],0%
same,Eos,[7],0.8%
same,Fbg,[7],222.2 mg/dL
same,Hb,[7],14.8 g/dL
same,Lym,[7],85.2%
same,MCH,[7],20.3 pg
same,MCHC,[7],33.8%
same,MCV,[7],60.1 fL
same,Mono,[7],4.8%
same,Plat,[7],122.4 x10_4/uL
same,RBC,[7],726.6 x10_4/ul
same,Ret,[7],3.9%
same,WBC,[7],111.4 x10_2/uL
same,APTT,[8],17.2 s
same,Bas,[8],0%
same,Eos,[8],1%
same,Fbg,[8],211 mg/dL
same,Hb,[8],15.6 g/dL
same,Ht,[8],45.9%
same,Lym,[8],82%
same,MCH,[8],20 pg
same,MCHC,[8],34%
same,MCV,[8],58.9 fL
same,Mono,[8],4.8%
same,Plat,[8],112.7 x10_4/uL
same,RBC,[8],779 x10_4/ul
same,Ret,[8],2.9%
same,KIDNEY_L,[6],1.1 g
same,KIDNEY_R,[6],1.2 g
same,KIDNEY_TOTAL,[6],2.3 g
same,KIDNEY_L,[7],1.2 g
same,KIDNEY_R,[7],1.3 g
same,KIDNEY_TOTAL,[7],2.5 g
same,KIDNEY_L,[8],1.4 g
same,KIDNEY_R,[8],1.5 g
same,KIDNEY_TOTAL,[8],2.9 g
same,ALP,[6],808 IU/L
same,ALT,[6],35 IU/L
same,AST,[6],68.8 IU/L
same,BUN,[6],17 mg/dL
same,CRE,[6],0.6 mg/dL
same,Ca,[6],10.8 mg/dL
same,Cl,[6],107.8 meq/L
same,DBIL,[6],0.014 mg/dL
same,GLC,[6],192.8 mg/dL
same,IP,[6],6.1 mg/dL
same,K,[6],5 meq/L
same,LDH,[6],121.4 IU/L
same,Na,[6],138.8 meq/L
same,PL,[6],151.4 mg/dL
same,RALB,[6],3.9 g/dL
same,TBIL,[6],0.4 mg/dL
same,TC,[6],77 mg/dL
same,TG,[6],92.6 mg/dL
same,TP,[6],5.7 g/dL
same,gamma-GTP,[6],1 IU/L
same,ALP,[7],770 IU/L
same,ALT,[7],33.2 IU/L
same,AST,[7],69.6 IU/L
same,BUN,[7],18.6 mg/dL
same,CRE,[7],0.6 mg/dL
same,Ca,[7],10.6 mg/dL
same,Cl,[7],104.2 meq/L
same,DBIL,[7],0.01 mg/dL
same,GLC,[7],198 mg/dL
same,IP,[7],6.1 mg/dL
same,K,[7],4.3 meq/L
same,LDH,[7],112.8 IU/L
same,Na,[7],141.6 meq/L
same,PL,[7],148.8 mg/dL
same,RALB,[7],3.9 g/dL
same,TBIL,[7],0.3 mg/dL
same,TC,[7],67.8 mg/dL
same,TG,[7],150.4 mg/dL
same,TP,[7],6 g/dL
same,gamma-GTP,[7],0.8 IU/L
same,ALP,[8],601.2 IU/L
same,ALT,[8],28.6 IU/L
same,AST,[8],55.8 IU/L
same,BUN,[8],18.2 mg/dL
same,CRE,[8],0.5 mg/dL
same,Ca,[8],10.6 mg/dL
same,Cl,[8],107.2 meq/L
same,DBIL,[8],0.018 mg/dL
same,GLC,[8],179 mg/dL
same,IP,[8],5 mg/dL
same,K,[8],4.3 meq/L
same,LDH,[8],106.6 IU/L
same,Na,[8],140.4 meq/L
same,PL,[8],154.8 mg/dL
same,RALB,[8],4 g/dL
same,TBIL,[8],0.3 mg/dL
same,TC,[8],76.4 mg/dL
same,TG,[8],145.8 mg/dL
same,TP,[8],6.2 g/dL
